Results reported in patent publication US20220324835A1 (Nurix Therapeutics, Inc., priority 2018, published 2022).

How the values were obtained:
[1] = biological target: T1, Cbl-b (Homo sapiens, UniProt Q13191); assay: Cbl-b activity assay (Cbl-b inhibition assay), TR-FRET of Cbl-b interaction with UbcH5B-Ub; format: biochemical; details: assay buffer with 100 mM NaCl, 60 nM Src kinase; read-out: Cbl-b activity IC50
Summary of the method: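 Compound-treated Cbl-b was incubated 1.5 h with Src kinase (60 nM final; 30 nM for asterisked values, which also used 50 mM instead of 100 mM NaCl), 1 mM ATP and 5 mM MgCl2. Binding to fluorescent Ub-loaded UbcH5B (C85K mutant) was then read by TR-FRET after 1 h more.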

[2] = system: T-cell; assay: CD25 cell surface staining on T-cells stimulated with anti-CD3 antibody alone (Biological Example 2); format: cell-based; details: primary human total T-cells, baseline = anti-CD3/anti-CD28 stimulated cells without inhibitor, read-out: CD25 staining, Anti-CD3 stimulation, fold change over baseline; for fold induction at 1 µM: 1 μM compound; for fold induction at 8 µM: 8 μM compound
[3] = system: T-cell; assay: IL-2 secretion from T-cells stimulated with anti-CD3 antibody alone (Biological Example 2); format: cell-based; details: primary human total T-cells, read-out: IL-2 secretion, Anti-CD3 stimulation, fold change over baseline; for fold induction at 1 µM: 1 μM compound; for fold induction at 8 µM: 8 μM compound
[4] = biological target: T1, Cbl-b; assay: Cbl-b inhibition assay (Cbl-b activity assay, FRET, Biological Example 1; 100 mM NaCl, 60 nM Src kinase); format: biochemical; details: upper bound stated in text lists; read-out: IC50 values in the Cbl-b inhibition assay of Biological Example 1
Summary of the method: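 Inhibition is read as loss of FRET signal. The signal arises when Src-phosphorylated, N-terminal biotinylated Avi-Cbl-b (captured by streptavidin-terbium) binds UbcH5B carrying covalently linked Bodipy-Fluorescein-tagged ubiquitin.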

[5] = system: T-cell; assay: IL-2 secretion from T-cells co-stimulated with anti-CD3 and anti-CD28 antibody (Biological Example 2); format: cell-based, human; details: Homo sapiens, T-cell, primary human total T-cells, baseline = anti-CD3/anti-CD28 stimulated cells without inhibitor, read-out: IL-2 secretion, Anti-CD3/Anti-CD28 stimulation, fold change over baseline; for fold induction at 0.3 µM: 0.3 μM compound; for fold induction at 1 µM: 1 μM compound; for fold induction at 4 µM: 4 μM compound
Summary of the method: (§1)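 Values are fold-change over baseline: readings (IL-2 release, CD25 staining) from inhibitor-treated T-cells divided against untreated cells […]. No detailed procedure stated.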

[6] = system: T-cell; assay: CD25 cell surface staining on T-cells co-stimulated with anti-CD3 and anti-CD28 antibody (Biological Example 2); format: cell-based, human; details: Homo sapiens, T-cell, primary human total T-cells, baseline = anti-CD3/anti-CD28 stimulated cells without inhibitor, read-out: CD25 staining, Anti-CD3/Anti-CD28 stimulation, fold change over baseline; for fold induction at 0.3 µM: 0.3 μM compound; for fold induction at 1 µM: 1 μM compound; for fold induction at 4 µM: 4 μM compound
Summary of the method: as §1

T1 sequence (Q13191 36-427): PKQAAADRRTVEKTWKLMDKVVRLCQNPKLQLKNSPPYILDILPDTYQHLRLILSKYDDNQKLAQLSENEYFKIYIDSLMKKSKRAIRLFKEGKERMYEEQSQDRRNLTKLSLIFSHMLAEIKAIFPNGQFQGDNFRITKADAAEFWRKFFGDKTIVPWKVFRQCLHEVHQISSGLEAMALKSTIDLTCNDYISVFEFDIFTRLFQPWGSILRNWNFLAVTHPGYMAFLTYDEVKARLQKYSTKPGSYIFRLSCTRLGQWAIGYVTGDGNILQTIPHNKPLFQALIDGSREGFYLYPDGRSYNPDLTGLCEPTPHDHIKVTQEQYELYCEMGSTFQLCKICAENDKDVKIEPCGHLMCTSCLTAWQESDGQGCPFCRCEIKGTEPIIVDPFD

SMILES | IC50 [1] [nM] | fold induction at 1 µM [2] | fold induction at 1 µM [3] | IC50 [4] [nM] | fold induction at 0.3 µM [5] | fold induction at 1 µM [5] | fold induction at 0.3 µM [6] | fold induction at 1 µM [6] | fold induction at 8 µM [2] | fold induction at 8 µM [3] | fold induction at 4 µM [5] | fold induction at 4 µM [6]
CN1CC[C@@H](O)[C@@H](Cc2cc3c(c(C(F)(F)F)c2)CN(c2cccc(C4(Cc5nncn5C)COC4)c2)C3=O)C1 (racemic) [Compound 532, 6-(((cis)-4-hydroxy-1-methylpiperidin-3-yl)methyl)-2-(3-(3-((4-methyl-4H-1,2,4-triazol-3-yl)methyl)oxetan-3-yl)phenyl)-4-(trifluoromethyl)isoindolin-1-one] | < 100 | 0.801 to 1 | 0.101 to 0.15 | ≤ 100 | 1.01 to 2.5 | 2.51 to 5 | 1.01 to 1.3 | 1.01 to 1.3 | – | – | – | –
CN1CC2CCC1CN2c1cc2c(c(C(F)(F)F)c1)CN(c1cccc(C3(Cc4nncn4C)COC3)c1)C2=O (stereo not shown) [Compound 387, 2-(3-(3-((4-Methyl-4H-1,2,4-triazol-3-yl)methyl)oxetan-3-yl)phenyl)-6-(5-methyl-2,5-diazabicyclo[2.2.2]octan-2-yl)-4-(trifluoromethyl)isoindolin-1-one] | < 100 | 0.801 to 1 | > 0.201 | ≤ 100 | 2.51 to 5 | 5 to 7.5 | 1.01 to 1.3 | 1.31 to 1.5 | – | – | – | –
Cn1cnnc1C(F)(F)[C@](C)(F)c1cccc(N2Cc3c(cc(CN4C[C@@H](F)[C@@H](F)C4)cc3C(F)(F)F)C2=O)c1 [Compound 461, 6-(((3R,7S)-3,4-difluoropyrrolidin-1-yl)methyl)-2-(3-((R)-1,1,2-trifluoro-1-(4-methyl-4H-1,2,4-triazol-3-yl)propan-2-yl)phenyl)-4-(trifluoromethyl)isoindolin-1-one] | < 100 | > 1 | 0.151 to 0.2 | ≤ 100 | 2.51 to 5 | 5 to 7.5 | 1.31 to 1.5 | 1.31 to 1.5 | > 1 | > 0.201 | > 7.5 | 1.51 to 1.75
CN1CCC(=O)C(Cc2cc3c(c(C(F)(F)F)c2)CN(c2cccc(C4(Cc5nncn5C)COC4)c2)C3=O)C1 (stereo not drawn) [Compound 531, 6-((l-methyl-4-oxopiperidin-3-yl)methyl)-2-(3-(3-((4-methyl-4H-1,2,4-triazol-3-yl)methyl)oxetan-3-yl)phenyl)-4-(trifluoromethyl)isoindolin-1-one] | < 100 | > 1 | > 0.201 | ≤ 100 | > 7.5 | > 7.5 | 1.01 to 1.3 | 1.01 to 1.3 | – | – | – | –
Cn1cnnc1-c1cnn(C)c1-c1cccc(N2Cc3c(cccc3C(F)(F)F)C2=O)c1 [Compound 523, 2-(3-(l-methyl-4-(4-methyl-4H-1,2,4-triazol-3-yl)-1H-pyrazol-5-yl)phenyl)-4-(trifluoromethyl)isoindolin-1-one] | 100 to 300 | 0.601 to 0.8 | 0.051 to 0.1 | ≤ 300 | 1.01 to 2.5 | 1.01 to 2.5 | 1.01 to 1.3 | 1.01 to 1.3 | – | – | – | –
Cc1cc(C(=O)Nc2cccc([C@@]3(Cc4nncn4C)CCOC3)c2)nc(C2CC2)n1 (single isomer, unassigned) [Compound 534b] | < 100 | 0.801 to 1 | 0.101 to 0.15 | ≤ 100 | 2.51 to 5 | 2.51 to 5 | 1.01 to 1.3 | 1.01 to 1.3 | – | – | – | –
CN(c1cc2c(c(C(F)(F)F)c1)CN(c1cccc([C@@](C)(F)C(F)(F)c3nncn3C)c1)C2=O)[C@@H]1CNC[C@@H]1F [Example 548, 6-(((3R,4S)-4-fluoropyrrolidin-3-yl)(methyl)amino)-2-(3-((R)-1,1,2-trifluoro-1-(4-methyl-4H-1,2,4-triazol-3-yl)propan-2-yl)phenyl)-4-(trifluoro-methyl)isoindolin-1-one] | 100 to 300 | 0.601 to 0.8 | 0.101 to 0.15 | ≤ 300 | 1.01 to 2.5 | 2.51 to 5 | 1.01 to 1.3 | 1.01 to 1.3 | – | – | – | –
Cc1conc1CC1(c2cccc(NC(=O)c3cc(CN4CCC5(CC5)C4)nc(C4CC4)n3)c2)COC1 [Compound 508, 6-{5-azaspiro[2.4]heptan-5-ylmethyl}-2-cyclopropyl-N-(3-{3-[(4-methyl-1,2-oxazol-3-yl)methyl]oxetan-3-yl}phenyl)pyrimidine-4-carboxamide] | < 100 | > 1 | > 0.201 | ≤ 100 | > 7.5 | > 7.5 | 1.31 to 1.5 | 1.31 to 1.5 | – | – | – | –
C[C@H](c1cc2c(c(C(F)(F)F)c1)CN(c1cccc(C3([C@@H](F)c4nncn4C)COC3)c1)C2=O)N1CCC2(CC2)C1 (stereo in doubt) [Compound 515, 6-[(1R)-1-{5-azaspiro[2.4]heptan-5-yl}ethyl]-2-(3-{3-[(R)-fluoro(4-methyl-1,2,4-triazol-3-yl)methyl]oxetan-3-yl}phenyl)-4-(trifluoromethyl)-3H-isoindol-1-one] | < 100 | > 1 | > 0.201 | ≤ 100 | > 7.5 | > 7.5 | > 1.76 | > 1.76 | – | – | – | –
C[C@H](Cc1nncn1C)c1cc(N[C@@H](C)CO)nc(N2Cc3c(cccc3C(F)(F)F)C2=O)c1 [Compound 365, 2-(6-((S)-1-hydroxypropan-2-ylamino)-4-((R)-1-(4-methyl-4H-1,2,4-triazol-3-yl)propan-2-yl)pyridin-2-yl)-4-(trifluoromethyl)isoindolin-1-one] | 100 to 300 | 0.601 to 0.8 | 0.051 to 0.1 | ≤ 300 | 1.01 to 2.5 | 1.01 to 2.5 | 1.01 to 1.3 | 1.01 to 1.3 | > 1 | 0.151 to 0.2 | 2.51 to 5 | 1.01 to 1.3
CC[C@H](c1cc2c(c(C(F)(F)F)c1)CN(c1cccc(C3(Cc4nncn4C)COC3)c1)C2=O)N1CC[C@H](F)C1 [Example 546, 6-((R)-1-((S)-3-fluoropyrrolidin-1-yl)propyl)-2-(3-(3-((4-methyl-4H-1,2,4-triazol-3-yl)methyl)oxetan-3-yl)phenyl)-4-(trifluoromethyl)isoindolin-1-one] | < 100 | > 1 | > 0.201 | ≤ 100 | > 7.5 | > 7.5 | 1.51 to 1.75 | 1.51 to 1.75 | – | – | – | –
C[C@@H](c1cc2c(c(C(F)(F)F)c1)CN(c1cccc(C3(Cc4nncn4C)COC3)c1)C2=O)N1CC(C)(F)C1 [Compound 543a, (S)-6-(1-(3-fluoro-3-methylazetidin-1-yl)ethyl)-2-(3-(3-((4-methyl-4H-1,2,4-triazol-3-yl)methyl)oxetan-3-yl)phenyl)-4-(trifluoromethyl)isoindolin-1-one] | < 100 | > 1 | > 0.201 | ≤ 100 | 2.51 to 5 | > 7.5 | 1.31 to 1.5 | 1.51 to 1.75 | – | – | – | –
C[C@@H](c1cc2c(c(C(F)(F)F)c1)CN(c1cccc(C3(Cc4nncn4C)COC3)c1)C2=O)N1CCC2(CC1)CC2 [Example 558a, (S)-6-(1-(6-azaspiro[2.5]octan-6-yl)ethyl)-2-(3-(3-((4-methyl-4H-1,2,4-triazol-3-yl)methyl)oxetan-3-yl)phenyl)-4-(trifluoromethyl)isoindolin-1-one] | < 100 | > 1 | > 0.201 | ≤ 100 | > 7.5 | > 7.5 | 1.01 to 1.3 | 1.01 to 1.3 | – | – | – | –
